Measurements published in patent US20240336622A1 (The Board of Regents of The University of Texas System, priority 2021, published 2024).
Where two headings read alike, the source gives them in different places.

Experiments:
PARP1 = PARP1 trapping activity of nimbolide analogs (FIGS. 19, 20); assay type: cell-based; conditions: for PARP1 trapping by nimbolide analogs: FIGS. 19 and 20
UWB1 cells [1] = system: UWB1 cells
UWB1 cells [2] = assay: cells
[3] = system: UWB1, A673, Fadu, H2058, H1048, MDA-MB-468 cells; assay: Cytotoxicity in cancer cell lines with different genetic background (cell titer glo); assay type: cell-based; conditions: 1 μM for 96 hours
From the text: Cells were then subjected to cell titer glo analysis. Data represent mean±SEM.

H889 and H82 cells = assay: Sensitivity of Talazoparib-resistant small cell lung cancer cells; assay type: cell-based
[4] = read-out: IC50 (μM) UWB1 cells, UWB1 cell viability

Row | Compound | PARP1 trapping by nimbolide analogs (PARP1) | IC50 (UWB1 cells [2]; [4]) | further results
1 | COC(=O)C[C@H]1[C@]2(C)C3=C(C)[C@H](c4ccoc4-c4ccc(O[Si](C)(C)C(C)(C)C)cc4)C[C@H]3O[C@@H]2[C@@H]2OC(=O)[C@]3(C)C=CC(=O)[C@@]1(C)[C@@H]23 [S-46] | induce PARP1 trapping | 0.089 µM | trapping activity compared to nimbolide (PARP1; FIG. 19): more potent trapping activity; cytotoxicity against UWB1 cells (UWB1 cells [1]): excellent cytotoxicity
2 | CC[Si](CC)(CC)O[C@H]1C(=O)[C@H](CC(=O)OC)[C@@]2(C)C(=O)C=C[C@@]3(C)C(=O)O[C@@H]1[C@H]23 [S-39] | induce PARP1 trapping |  | IC50 (UWB1 cells [2]; read-out: IC50 (μM) UWB1 cells): 1.18 µM
3 | C=C1[C@H](O[C@@H]2C[C@@H](c3ccoc3)C(C)=C2I)[C@@H]2OC(=O)[C@]3(C)C=CC(=O)[C@@](C)([C@@H]23)[C@H]1CC(=O)OC [S-26] | induce profound PARP1 trapping |  | IC50 (UWB1 cells [2]; read-out: IC50 (μM) UWB1 cells): 0.226 µM
4 | CNCc1ccc(-c2[nH]c3cc(F)cc4c3c2CCNC4=O)cc1 [Rucaparib, rucaparib] |  |  | sensitivity of cell lines (UWB1, A673, Fadu, H2058, H1048, MDA-MB-468) [3]: different degrees of sensitivity
5 | Cn1ncnc1[C@H]1c2n[nH]c(=O)c3cc(F)cc(c23)N[C@@H]1c1ccc(F)cc1 [Talazoparib, talazoparib] |  |  | sensitivity of H889 and H82 cells (H889 and H82 cells): resistant
6 | O=C(c1cc(Cc2n[nH]c(=O)c3ccccc23)ccc1F)N1CCN(C(=O)C2CC2)CC1 [Olaparib, olaparib] |  |  | sensitivity of cell lines (UWB1, A673, Fadu, H2058, H1048, MDA-MB-468) [3]: different degrees of sensitivity
7 | COC(=O)C[C@H]1[C@]2(C)C3=C(C)[C@H](C4=CC(=O)OC4OC(C)=O)C[C@H]3O[C@@H]2[C@@H]2OC(=O)[C@]3(C)C=CC(=O)[C@@]1(C)[C@@H]23 (stereo partly shown) [S-51] |  |  | IC50 (UWB1 cells [1]; [4]): 0.954 µM
8 | C=C1[C@H](O[C@H]2CCC(C)=C2I)[C@@H]2OC(=O)[C@]3(C)C=CC(=O)[C@@](C)([C@@H]23)[C@H]1CC(=O)OC [S-84] | induce profound PARP1 trapping | 0.183 µM | 
9 | COC(=O)C[C@H]1[C@]2(C)C3=C(C)[C@H](c4ccoc4-c4ccc(OC)nc4)C[C@H]3O[C@@H]2[C@@H]2OC(=O)[C@]3(C)C=CC(=O)[C@@]1(C)[C@@H]23 [S-43] |  | 0.208 µM | 
10 | COC(=O)C[C@H]1[C@]2(C)C3=C(C)[C@H](C4=CCOC4=O)C[C@H]3O[C@@H]2[C@@H]2OC(=O)[C@]3(C)C=CC(=O)[C@@]1(C)[C@@H]23 [S-131] |  | 1.18 µM | 
11 | C=C1[C@H](O)[C@@H]2OC(=O)[C@]3(C)C=CC(=O)[C@@](C)([C@@H]23)[C@H]1CC(=O)OC [S-16] |  | > 10 µM | 
12 | COC(=O)C[C@H]1[C@@H]2CC3=C(C)[C@@H](c4ccccc4)C[C@@H]3O[C@@H]2[C@@H]2OC(=O)[C@]3(C)C=CC(=O)[C@@]1(C)[C@@H]23 [S-103] |  | 0.16 µM | 
13 | COC(=O)C[C@H]1[C@]2(C)C3=C(C)[C@H](c4ccccc4)C[C@H]3O[C@@H]2[C@@H]2OC(=O)[C@]3(C)C=CC(=O)[C@@]1(C)[C@@H]23 [S-101] |  | 0.3 µM | 
